“And” between values parts separate entries of the source, which are not always exact repeats. Equal entries are not always repeated. Structures can show the parent of a compound that is named as a salt.
What was measured:
washed rat platelets [1] = assay: ADP (10 μM)-induced aggregation of washed rat platelets; format: cell-based; details: for platelet aggregation when incubated with naringenin after kinase inhibitor: naringenin 200 μmol/L; for Aggregation (%): raw data
Method: Platelet-rich plasma (PRP) was obtained, and after the addition of 100 ng/ml PGE1, platelets were pelleted at 900 × g for 10 min. […] Washed platelets were preincubated with vehicle (0.4% dimethyl sulfoxide) or various concentrations of naringenin in the presence of 2 mM CaCl2 for 5 min at 37°C, and then further stimulated by ADP (10 μM), thrombin (0.2 U/mL) or collagen (2 μg/ml). The maximum platelet aggregation rate was detected within 5 min with continuous stirring.
Platelet aggregation was induced by ADP using washed platelets and PRP. Washed platelets were preincubated with vehicle (containing 0.4% DMSO) or different doses (100, 200, 400, and 800 μM) of naringenin or naringin for 5 min before activation with ADP (10 μM) for 5 min.
(§1) FIGURE 1 Effects of naringenin and naringin on platelet aggregation. Chemical structure of naringin (A) and naringenin (B). The effects of naringin (C) or naringenin (D) on PRP were measured following stimulation with 10 μmol/L ADP. Rat washed platelet aggregation performed with or without different concentrations of naringin (E) or naringenin (F) was recorded after stimulation with 10 μmol/L ADP. Similarly, Washed platelet aggregation performed with vehicle or various concentrations of naringenin was recorded after stimulation with 0.2 U/mL thrombin (G) or 2 μg/ml collagen (H). WP represents washed platelets. Data are expressed as means ± SD (n = 6), the level of aggregation obtained at 5 min with vehicle-treated samples (0 μM) was taken as 100%. *p < 0.05, **p < 0.01, ***p < 0.001 compared with the vehicle control group.

[2] = tested on: VASP Ser239 phosphorylation; assay: Immunoblotting of phospho-VASP (Ser239) in ADP-stimulated washed platelets, with or without PKA, PKG, PKC inhibitors; format: cell-based, rat; details: ADP 10 μmol/L
Method: For in vitro platelet aggregation, aliquots of washed platelets were preincubated with vehicle or various concentrations of naringenin for 5 min and stimulated with ADP (10 μmol/L) under stirring at 37°C for 5 min. For ex vivo platelet aggregation, PRP was incubated at 37°C for 5 min and stimulated with ADP (5 μmol/L) under stirring at 37 °C. The platelet aggregation was terminated by adding ethylenediaminetetraacetic acid (EDTA; 10 mM). Total protein was prepared using RIPA lysis buffer and protein content was determined by bicinchoninic acid (BCA) protein assay kit. Equal amounts of platelet proteins (30 μg) were separated on 10% SDS polyacrylamide gel electrophoresis (SDS-PAGE) and then transferred to poly vinylidene difluoride (PVDF) membranes and subjected to western blot. Blots were blocked with TBS-Tween 20 containing 5% BSA and probed with primary antibodies diluted in blocking solution at 4°C overnight followed by incubation with the corresponding HRP secondary antibodies. The protein bands were visualized using enhanced chemiluminescence (ECL).
VASP is a substrate for cAMP- and cGMP- dependent protein kinases, which mediate cAMP- and cGMP-dependent inhibitory signaling in platelets, respectively. Increased cAMP levels followed by the activation of cAMP-dependent protein kinase A (PKA) phosphorylates VASP at position Ser157, whereas the elevation of cGMP leads to VASP phosphorylation at position Ser239 by cGMP-dependent protein kinase G (PKG) ([Aszódi et al., 1999]; [Li et al., 2003a]). To further examine whether naringenin modulates cAMP- or cGMP-mediated inhibitory signaling, the phosphorylation of VASP (Ser157 and Ser239) in washed platelets on stimulation with ADP were measured in the absence or presence of naringenin (100, 200, 400, and 800 μM). […] To further confirm the antiplatelet effects of naringenin through PKA-dependent signaling, the effects of naringenin on platelet aggregation were measured in the presence of PKG inhibitor (Rp-8-Br-PET-cGMPS) and PKA inhibitor (H89).
FIGURE 7 Naringenin promotes VASP phosphorylation. The effects of naringenin on phosphorylation of VASP (at positions Ser 157 and Ser239) were measured in washed platelets upon stimulation with ADP (10 μmol/L) by western blotting (A). The blots shown are representative of three separate experiments. The phosphorylation levels were quantified by ImageJ 1.47v software. The level of phosphorylation obtained with vehicle control (0 μM) was taken as 1 (B,C). R represents the phosphorylation level in resting platelets. Data are expressed as means ± SD (n = 3). *p < 0.05, ***p < 0.001 compared with the vehicle control group. VASP phosphorylation at Ser239 was also analyzed in washed platelets incubated with 5 μmol/L PKA (H89), 30 μmol/L PKG (Rp-8-Br-PET-cGMPS), or 5 μmol/L PKC (GF109203X) inhibitors before treatment with naringenin (D). Washed platelets were incubated with vehicle or naringenin (200 μmol/L) at 37°C in the presence or absence of 5 μmol/L PKA (H89) or 30 μmol/L PKG (Rp-8-Br-PET-cGMPS) inhibitors. After treatment, platelets were stimulated with ADP (10 μmol/L) to trigger aggregation (E). Data are expressed as means ± SD (n = 6). ***p < 0.001 compared with the ADP-treated group, ^# p < 0.05, ^### p < 0.001 compared with naringenin alone or H89 alone.

washed rat platelets [3] = assay: ADP (10 μM)-induced aggregation of washed rat platelets; format: cell-based; details: Figure 7E
[4] = tested on: PRP (platelet-rich plasma); assay: ADP (10 μmol/L)-induced aggregation of PRP in vitro; format: cell-based, rat; details: PRP, ADP 10 μmol/L, single replicates; for Aggregation (%): raw data
Method: Washed rat platelets were prepared as described previously ([Gao et al., 2011]) with a minor modification. Briefly, rat blood was drawn from the abdominal aorta into the siliconized vacutainers containing 1:9 (v/v) 3.8% sodium citrate, supplemented with 100 ng/ml prostaglandin E1 (PGE1) and centrifuged at 300 × g for 6 min at room temperature. Platelet-rich plasma (PRP) was obtained, and after the addition of 100 ng/ml PGE1, platelets were pelleted at 900 × g for 10 min. Platelets were washed once in Tyrode’s buffer (12 mM NaHCO3, 138 mM NaCl, 5.5 mM glucose, 2.9 mM KCl, 2 mM MgCl2, 0.42 mM NaH2PO4, 10 mM HEPES, pH 7.4) containing 100 ng/ml PGE1, and finally resuspended in Tyrode’s buffer containing 0.02 U/mL apyrase to a final concentration of 4×10^8 cells/mL. Washed platelets were preincubated with vehicle (0.4% dimethyl sulfoxide) or various concentrations of naringenin in the presence of 2 mM CaCl2 for 5 min at 37°C, and then further stimulated by ADP (10 μM), thrombin (0.2 U/mL) or collagen (2 μg/ml). The maximum platelet aggregation rate was detected within 5 min with continuous stirring.
Platelet aggregation was induced by ADP using washed platelets and PRP. Washed platelets were preincubated with vehicle (containing 0.4% DMSO) or different doses (100, 200, 400, and 800 μM) of naringenin or naringin for 5 min before activation with ADP (10 μM) for 5 min. […] For example, naringenin, at doses of 100 and 800 μM, decreased ADP-induced platelet aggregation to 54.5 ± 6.2% and 6.3 ± 1.7%, respectively (n = 6; p < 0.001, control group platelet aggregation was taken as 100%) (Figure 1F). […] Because dietary flavonoids have been reported to bind plasma proteins and cause the lowering of inhibitory potency in PRP ([Wright et al., 2013]), the ability of naringenin and naringin on platelet function in PRP was investigated to compare their effects with washed platelets.
as §1

[5] = inhibitor 5 μmol/L before treatment with naringenin

O=c1c2nc(Br)n([C@@H]3O[C@@H]4CO[P@@](O)(=S)O[C@H]4[C@H]3O)c2nc2[nH]c(-c3ccccc3)cn12 [Rp-8-Br-PET-cGMPS, Rp-8-Bromo-β-phenyl-1, N2-ethenoguanosine 3´, 5´-cyclic mono-phosphorothioate sodium salt]
platelet aggregation when incubated with naringenin after kinase inhibitor (washed rat platelets [1]; inhibitor 30 μmol/L preincubation, ADP 10 μmol/L): did not affect the final extent of platelet aggregation
naringenin-induced phosphorylation of VASP at Ser239 after kinase inhibitor ([2]; inhibitor 30 μmol/L before treatment with naringenin): only small changes
Aggregation (%) (washed rat platelets [3]; Rp-8-Br-PET-cGMPS (30 μM)+ADP (10 μM)): 67.3% and 69.8% and 64.5% and 66.3% and 65.0% and 70.4%

CN(C)CCCn1cc(C2=C(c3c[nH]c4ccccc34)C(=O)NC2=O)c2ccccc21 [GF109203X, reference compound]
naringenin-induced phosphorylation of VASP at Ser239 after kinase inhibitor [2, 5]: only small changes

C[C@@H]1O[C@@H](O[C@H]2[C@H](Oc3cc(O)c4c(c3)O[C@H](c3ccc(O)cc3)CC4=O)O[C@H](CO)[C@@H](O)[C@@H]2O)[C@H](O)[C@H](O)[C@H]1O [Naringin, naringin, reference compound]
Aggregation (%) ([4]; compound 100 μM): 56.0% and 55.8% and 53.6% and 54.0% and 60.0%
Aggregation % of control ([4]; compound 100 μM, 100 µM): 97.5 % of control and 100.8 % of control and 93.6 % of control and 94.3 % of control and 104.8 % of control
Aggregation (%) ([4]; compound 200 μM): 54.6% and 53.1% and 52.4% and 49.6% and 54.8%
Aggregation % of control ([4]; compound 200 μM, 200 µM): 92.8 % of control and 97.1 % of control and 91.5 % of control and 86.6 % of control and 95.7 % of control
Aggregation (%) ([4]; compound 400 μM): 55.9% and 54.0% and 46.2% and 49.8% and 51.2%
Aggregation % of control ([4]; compound 400 μM, 400 µM): 96.9 % of control and 94.3 % of control and 80.7 % of control and 87.0 % of control and 89.4 % of control
Aggregation (%) ([4]; compound 800 μM): 46.8% and 40.4% and 51.9% and 43.4%
Aggregation % of control ([4]; compound 800 μM, 800 µM): 85.1 % of control and 85.9 % of control and 70.6 % of control and 90.7 % of control and 75.8 % of control
activity at 100 µM ([4]; Rattus norvegicus, compound 100 μM, read-out: Aggregation % of control): 97.8%
activity at 200 µM ([4]; Rattus norvegicus, compound 200 μM, read-out: Aggregation % of control): 95.4%
activity at 400 µM ([4]; Rattus norvegicus, compound 400 μM, read-out: Aggregation % of control): 97.6%
activity at 200 µM (washed rat platelets [1]; Rattus norvegicus, Platelet, washed platelets, ADP 10 μmol/L, compound 200 μM, single replicates, read-out: Aggregation % of control): 72.6%
activity at 400 µM (washed rat platelets [1]; Rattus norvegicus, Platelet, washed platelets, ADP 10 μmol/L, compound 400 μM, single replicates, read-out: Aggregation % of control): 79.8%
ADP-induced platelet aggregation (control group taken as 100%) (washed rat platelets [1]; washed platelets, ADP 10 μM, compound 800 μM, mean ± SD, n = 6): 70.8 ± 7.1%
Aggregation (%) (washed rat platelets [1]; washed platelets, ADP 10 μmol/L, compound 100 μM, single replicates): 66.8% and 55.6% and 57.3% and 61.8% and 52.0% and 65.0%
Aggregation % of control (washed rat platelets [1]; washed platelets, ADP 10 μmol/L, compound 100 μM, single replicates, 100 µM): 94.6 % of control and 78.7 % of control and 81.1 % of control and 87.5 % of control and 73.6 % of control and 92.0 % of control
Aggregation (%) (washed rat platelets [1]; washed platelets, ADP 10 μmol/L, compound 200 μM, single replicates): 51.3% and 57.7% and 55.0% and 59.4% and 50.0% and 54.0%
Aggregation % of control (washed rat platelets [1]; washed platelets, ADP 10 μmol/L, compound 200 μM, single replicates, 200 µM): 81.7 % of control and 77.8 % of control and 84.1 % of control and 70.8 % of control and 76.4 % of control
Aggregation (%) (washed rat platelets [1]; washed platelets, ADP 10 μmol/L, compound 400 μM, single replicates): 56.4% and 55.5% and 55.4% and 51.0% and 52.3% and 46.6%
Aggregation % of control (washed rat platelets [1]; washed platelets, ADP 10 μmol/L, compound 400 μM, single replicates, 400 µM): 78.6 % of control and 78.4 % of control and 72.2 % of control and 74.0 % of control and 66.0 % of control
Aggregation (%) (washed rat platelets [1]; washed platelets, ADP 10 μmol/L, compound 800 μM, single replicates): 58.1% and 48.7% and 49.2% and 43.6% and 47.5% and 53.0%
Aggregation % of control (washed rat platelets [1]; washed platelets, ADP 10 μmol/L, compound 800 μM, single replicates, 800 µM): 82.2 % of control and 68.9 % of control and 69.6 % of control and 61.7 % of control and 67.2 % of control and 75.0 % of control

O=S(=O)(NCCNCC=Cc1ccc(Br)cc1)c1cccc2cnccc12 [H89, N-[2-(p-bromocinnamylamino)ethyl]-5-isoquinolinesulfonamide]
level of platelet aggregation, inhibitor alone (washed rat platelets [1]; ADP 10 μmol/L, inhibitor 5 μmol/L, without naringenin): did not affect the level of platelet aggregation
platelet aggregation when incubated with naringenin after kinase inhibitor (washed rat platelets [1]; inhibitor 5 μmol/L pre-treatment, ADP 10 μmol/L): significantly restored platelet aggregation levels
naringenin-induced phosphorylation of VASP at Ser239 after kinase inhibitor [2, 5]: inhibited the increase in phosphorylation of VASP at Ser239
Aggregation (%) (washed rat platelets [3]; H89 (5 μM)+ADP (10 μM)): 62.7% and 67.1% and 68.1% and 68.8% and 64.1% and 69.2%
